Where two headings read alike, the source gives them in different places.
Legend:
HCV genotype 1b replicon = assay: HCV Replicon Assay; type: cell-based; settings: Zluc cells (Huh-7-derived, HCV genotype 1b replicon, luciferase reporter), 72 hours; read-out: HCV Replicon EC50
Procedure, shortened: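 Zluc Huh-7 cells with HCV genotype 1b replicon and luciferase reporter treated with 5-fold dilutions (100 μM to 0.0000512 μM final) in duplicate, or at 1 and 10 μM. Luminescence read with ONE-glo; EC50 from dose-response fits, or % inhibition at the fixed concentrations.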

Zluc cells [1] = test system: Zluc cells
cathepsin A (CatA) = target: T1, cathepsin A (CatA) (Homo sapiens, UniProt P10619); assay: CatA hydrolysis assay; type: in vitro ADME
T1 construct: purchased R & D Systems (Minneapolis, Minn.)
T1 sequence (P10619 29-326 limits assumed): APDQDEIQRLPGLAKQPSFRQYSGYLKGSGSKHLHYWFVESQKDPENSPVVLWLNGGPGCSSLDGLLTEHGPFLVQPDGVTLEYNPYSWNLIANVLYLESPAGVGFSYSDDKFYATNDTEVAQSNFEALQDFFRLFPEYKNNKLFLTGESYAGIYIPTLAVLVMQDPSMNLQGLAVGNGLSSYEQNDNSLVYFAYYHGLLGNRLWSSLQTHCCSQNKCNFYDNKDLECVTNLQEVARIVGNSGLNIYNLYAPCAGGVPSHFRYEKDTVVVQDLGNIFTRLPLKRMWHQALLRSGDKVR
T1 sequence (P10619 327-480 limits assumed): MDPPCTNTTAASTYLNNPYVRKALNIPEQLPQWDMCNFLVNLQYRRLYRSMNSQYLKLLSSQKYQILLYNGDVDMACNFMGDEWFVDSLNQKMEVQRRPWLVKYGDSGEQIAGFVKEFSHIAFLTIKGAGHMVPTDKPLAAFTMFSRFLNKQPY
Experimental: CatA, cathepsin L (CatL) and CES1 were purchased from R & D Systems (Minneapolis, Minn.). Prior to the enzymatic hydrolysis reactions, CatA was activated according to the manufacturer's instruction. Briefly, CatA (0.05 μg/μL) was incubated with CatL (0.005 μg/μL) for 30 min at 37° C. in 25 mM MES pH 6.0 containing 5 mM DTT. The reaction was stopped by addition of the CatL specific inhibitor E64 (10 μM).
The CatA assay was performed at 37° C. The reaction mixture contained 25 mM MES buffer pH 6.0, 100 mM NaCl, 4 mM DTT and 100 μM of the compound. The reaction was started by addition of the activated CatA enzyme to a final concentration of 0.005 μg/μL. One hundred-μL aliquots were taken after 0.5 min, 3 hrs and 18 hrs of incubation. Reactions were stopped by mixing the sample with an equal volume of ice-cold methanol, and were loaded on a HPLC for analysis.
(§1) Samples were analyzed by HPLC using 5μ C-18, 4.6×250 mm Phenomenex® Columbus column (Phenomenex USA, CA). The mobile phase consisted of buffer A (25 mM potassium phosphate with 5 mM tetrabutylammonium dihydrogen phosphate pH 6.3) and buffer B (100% methanol).

[2] = target: T2, carboxylesterase 1 (CES1) (Homo sapiens, UniProt P23141); assay: CES1 hydrolysis assay; type: in vitro ADME; settings: for CES1 hydrolysis: 100 μM compound, 37° C.
T2 construct: purchased R & D Systems (Minneapolis, Minn.)
T2 sequence (P23141 18-567): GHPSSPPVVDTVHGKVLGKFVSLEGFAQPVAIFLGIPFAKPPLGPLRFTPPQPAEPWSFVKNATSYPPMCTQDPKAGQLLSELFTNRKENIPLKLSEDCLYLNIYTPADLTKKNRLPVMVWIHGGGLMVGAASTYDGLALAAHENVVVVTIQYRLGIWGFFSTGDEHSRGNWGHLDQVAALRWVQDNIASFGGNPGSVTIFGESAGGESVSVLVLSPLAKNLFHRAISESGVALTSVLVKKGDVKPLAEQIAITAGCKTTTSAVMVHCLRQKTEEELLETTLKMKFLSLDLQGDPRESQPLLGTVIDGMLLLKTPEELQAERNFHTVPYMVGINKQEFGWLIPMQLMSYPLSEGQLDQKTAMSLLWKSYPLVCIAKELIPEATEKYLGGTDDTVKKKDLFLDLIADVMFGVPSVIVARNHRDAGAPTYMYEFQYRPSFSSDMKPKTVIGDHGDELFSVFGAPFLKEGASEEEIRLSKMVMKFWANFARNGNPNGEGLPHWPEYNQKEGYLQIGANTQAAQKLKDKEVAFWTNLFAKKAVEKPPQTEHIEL
Experimental: CES1 assay was performed at 37° C. in the reaction mixture containing 50 mM Tris/HCl buffer pH 7.5 and 100 μM of the compound. Reaction was started by addition of the CES1 to the final concentration 0.01 μg/mL. 100 μL aliquots were taken after 0.5 min, 3 hrs and 21 hrs of the incubation and the reaction was stopped by mixing with 100 μl of the ice-cold methanol prior to HPLC analysis.
as §1

[3] = Stability in liver subcellular fractions (microsomes); type: in vitro ADME, human; settings: 10 μM, 1.0 mg/mL microsomal protein, NADPH, 60 min, percent unchanged test compound
Experimental: Stability of compounds were determined in subcellular fractions (microsomes) of human liver in duplicate for each matrix. Pooled liver microsomal proteins (1.0 mg/mL), suspended in incubation buffer (100 mM potassium phosphate, pH 7.4, 5 mM MgCl2, and 0.1 mM EDTA), were preincubated for 5 min at 37° C. with 10 μM of a test compound from a 10 mM stock solution in DMSO (final DMSO concentration was 0.1%); the reaction was initiated by the addition of NADPH (3 mM final concentration). At specific times (0 and 60 min), 0.1 mL samples were taken and the reaction terminated by the addition of 4 volumes of stop solution (acetonitrile with 500 ng/mL carbutamide as an internal standard). The samples were vortexed for 30 sec and then centrifuged at 16,000 g for 10 min. 100 μL of supernatants were transferred to 96 deep-well plates preloaded with 100 μL distilled water and analyzed after mixing by LC-MS/MS. The MS peak area ratio of the test compounds versus the internal standard was calculated and percent unchanged test compound over 60 minutes was calculated using this ratio.

[4] = Stability in simulated intestinal fluid; type: in vitro ADME; settings: 100 μM, 2 hours at 37° C., percent of the peak area at time zero
Procedure, shortened: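 Compounds at 100 μM final, in duplicate, kept 2 h at 37° C in USP gastric fluid (pepsin) or intestinal fluid (pancreatin). Quenched with cold acetonitrile, supernatant analysed by C-18 HPLC, UV 252 nm. Remaining compound expressed as percent of time-zero peak area.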

[5] = Stability in fresh human whole blood; type: in vitro ADME; settings: 0.5 μM, percent unchanged test compound
Procedure, shortened: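 Test compound at 0.5 μM was incubated at 37 °C in fresh human K2EDTA whole blood, stored at 2–8 °C and used within 7 days, in triplicate. Samples taken at 0, 0.5, 1 and 2 h were quenched in cold acetonitrile containing internal standard and analysed by LC-MS/MS. Percent unchanged compound was derived from peak-area ratios.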

[6] = Stability in simulated gastric fluid; type: in vitro ADME; settings: 100 μM, 2 hours at 37° C., percent of the peak area at time zero
Experimental: Simulated gastric and intestinal fluids containing pepsin and pancreatin respectively were prepared according to the U.S. Pharmacopoeia USP291 procedure (www.pharmacopeia.cn/v29240/usp29nf24s0_ris1s126.html). Compounds (final concentration 100 μM) were incubated in duplicate in the appropriate fluid for 2 hours at 37° C. The samples were quenched with 200 μl cold acetonitrile, vortexed for 30 seconds and then centrifuged at 16,100 g for 10 min. The supernatants were analyzed by HPLC on a C-18 column with UV detection at 252 nm. The time 0 samples were prepared by adding SGF or SIF fluid to the quenching solvent followed by the test compound. Stability of the compounds was determined by peak area of the test compounds after incubation and calculated as percent of the peak area observed at time zero.

Zluc cells [7] = assay: cytotoxicity evaluation (CellTiter-Blue Cell Viability Assay); settings: read-out: HCV Replicon CC50; Zluc cells, CellTiter-Blue
Stability in mouse blood = type: in vitro ADME; settings: on ice, percent unchanged test compound
Procedure, shortened: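 Test compound at 0.5 μM final in whole blood, held on ice; sampled at 0, 0.5 and 1 hr in triplicate. Samples quenched with acetonitrile containing internal standard and analysed by LC-MS/MS; percent unchanged compound from peak area ratio to internal standard.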

fresh human hepatocytes = assay: Release of active metabolite in fresh human hepatocytes; type: in vitro ADME; settings: 10 μM compound; for FHH TP Cmax: fresh human hepatocytes; for FHH TP AUC: fresh human hepatocytes, 6, 24 and 48 hours
Procedure, shortened: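 Overnight-acclimatized hepatocytes (0.8 million cells/well human, 0.5 million mouse) incubated at 37 °C with 10 μM test compound (0.1% DMSO). Sampled at 6, 24, 48 h (human) or 1, 4, 8, 12, 24 h (mouse); cells washed, extracted in cold 70% methanol, intracellular content quantified by LC-MS/MS with internal standard.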

genotype 1b HCV replicon = assay: genotype 1b HCV replicon-bearing Huh-7 cells (Table 5); type: cell-based; settings: Hepatitis C virus
Excerpt: In vivo Z4 and Z2 appear to be effectively liver-targeted with a high liver:plasma ratio of drug metabolites. Both prodrugs are readily converted to the triphosphate (TP) metabolite in the liver of mice and monkey producing more TP than GS-7977. […] The in vitro antiviral inactivity of Z4 and Z2 is thought to reflect an inability of Huh-7 replicon cells to metabolize the prodrug moiety.

Huh-7 cells = assay: Release of active metabolite in Huh-7 cells; type: in vitro ADME, human; settings: Huh-7 cells, AUC0-72
Experimental: Huh-7 cells were plated in 1 mL culture medium (DMEM, containing glucose, L-glutamine and sodium pyruvate, 10% FBS, 100 IU/mL penicillin, 100 μg/mL streptomycin, 2 mM GlutaMAX, 1% MEM non-essential amino acids) at the concentration 0.8, 0.4 and 0.2 million cells per well on 6 well plates for 24, 48 and 72 hr treatment, respectively. Plated cells were incubated overnight at 37° C. in an incubator.
The following morning compounds was diluted to 20 μM from a stock solution in DMSO in fresh culture medium pre-warmed to 37° C. and 1 mL of the solution/well was added to cells. A final medium volume per well was 2.0 mL, Compound concentration in well was 10 μM and final DMSO concentration was 0.1%.
After 24, 48 or 72 hr, the medium was carefully removed and cell monolayers were washed twice with 2 mL ice-cold PBS per well. Following the last wash, all PBS was carefully removed and 1.0 mL of extraction solution (ice-cold 70% methanol) added. The plate was tightly covered with Parafilm, plastic plate cover and Parafilm again and an intracellular content was extracted at −20° C. for 24 hr.
After 24 hr extracts were transferred into polypropylene microfuge tubes and dried on a refrigerated centrivap concentrator. Dry residues were reconstituted in 250 μL of HPLC-grade water and centrifuged at 16,000×g for 10 min. Aliquots (100 μL each) of the supernatants were transferred into a 96 well plate and internal standard (4 ng/mL final concentration) was added as the internal standard (IS) for LC-MS/MS analysis.

SMILES: CCOc1nc(N)nc2c1ncn2C1OC2COP(=O)(OCC(NC(=O)OC)C(C)(C)C)OC2C1(C)F (single isomer, unassigned; diastereomer 1) [Compound 10 Diastereomer 1]
- EC50 (HCV genotype 1b replicon): 250 to 1000 nM
- CC50 (Zluc cells [1]): > 50000 nM

SMILES: CC(C)OC(=O)[C@H](C)N[P@@](=O)(OC[C@H]1O[C@@H](n2ccc(=O)[nH]c2=O)[C@](C)(F)[C@@H]1O)Oc1ccccc1 [PSI-7076]
- hydrolysis by CatA (in words) (cathepsin A (CatA)): hydrolyzed
- hydrolysis by CES1 (in words) [2]: hydrolyzed

SMILES: CCOC(=O)COP1(=O)OC[C@H]2O[C@@H](n3cnc4c(OCC)nc(N)nc43)[C@](C)(F)[C@@H]2O1 (single isomer, unassigned; diastereomer 1) [Compound 7 Diastereomer 1]
- Stability HLM (1 hr) [3]: 0.5%
- Stability SIF [4]: 50%
- Stability WB_Human (37° C.; 2 hr) [5]: 25%
- Stability SGF [6]: 87%
- CC50 (Zluc cells [7]): > 50000 nM
- EC50 (HCV genotype 1b replicon): < 250 nM
- Stability WB_Mouse (ice; 1 hr) (Stability in mouse blood): 1%
- FHH TP Cmax (fresh human hepatocytes): 31 pmol/mill cells
- FHH TP AUC (fresh human hepatocytes): 377 pmol · hr/mill cells

SMILES: CCOc1nc(N)nc2c1ncn2[C@@H]1O[C@@H]2COP(=O)(OCCSC(=O)C(C)(C)CO)O[C@H]2[C@@]1(C)OC(C)=O (single isomer, unassigned; diastereomer 2) [Compound 16 Diastereomer 2]
- EC50 (HCV genotype 1b replicon): < 250 nM
- CC50 (Zluc cells [1]): < 50000 nM

SMILES: CC(C)OC(=O)[C@H](C)N[P@](=O)(OC[C@H]1O[C@@H](n2ccc(=O)[nH]c2=O)[C@](C)(F)[C@@H]1O)Oc1ccccc1 [GS-7977]
- EC50 (genotype 1b HCV replicon): 250 nM
- hydrolysis by CatA (in words) (cathepsin A (CatA)): hydrolyzed
- CatA hydrolysis (cathepsin A (CatA); 100 μM compound, 37° C., 18 h): 100% @ 18 h
- CatA cleavage efficiency relative to RP diastereoisomer (cathepsin A (CatA); GS-7977 (SP) versus its RP diastereoisomer): 10 times
- Huh-7 AUC0-72 (Huh-7 cells): 63555 pmol * hr/10^6cells
- hydrolysis by CES1 (in words) [2]: hydrolyzed
- CES1 hydrolysis ([2]; 3 h): 12%/3 h;
- CES1 hydrolysis ([2]; 21 h): 15%/21 h

SMILES: CCOc1nc(N)nc2c1ncn2[C@@H]1O[C@@H]2COP(=O)(OCCSSC(C)(C)C)O[C@H]2[C@@]1(C)O (single isomer, unassigned; diastereomer 1) [Compound 23 Diastereomer 1]
- EC50 (HCV genotype 1b replicon): < 250 nM
- CC50 (Zluc cells [1]): < 50000 nM

SMILES: CCOc1nc(N)nc2c1ncn2C1OC2COP(=O)(Oc3ccc(CC(NC(=O)OC)C(=O)OC(C)C)cc3)OC2C1(C)F (single isomer, unassigned; diastereomer 1) [Compound 13 Diastereomer 1]
- Stability HLM (1 hr) [3]: 0.4%
- Stability SIF [4]: 72%
- Stability WB_Human (37° C.; 2 hr) [5]: 29%
- CC50 (Zluc cells [7]): > 50000 nM
- EC50 (HCV genotype 1b replicon): < 250 nM
- Stability WB_Mouse (ice; 1 hr) (Stability in mouse blood): 1%
- FHH TP Cmax (fresh human hepatocytes): 44 pmol/mill cells
- FHH TP AUC (fresh human hepatocytes): 1632 pmol · hr/mill cells
